Source: ChEMBL document CHEMBL5370547, “NSD3: Advances in cancer therapeutic potential and inhibitors research” (Eur J Med Chem, 2023)
Values belong to the compound of their own block, whether it stands above or below them. Starred links: 1 amine or outer side, 2 acyl side, 3 side chain; linkers in the order of their positions; H or OH if unused. Non-standard residues stand in square brackets, D forms with d. Residues, ends and D or L forms follow the SMILES beside them. X1 = CCC[C@H](C)[C@H](N[*:1])C(=O)[*:2]

Experiments:
[1] = target: T1, Histone-lysine N-methyltransferase NSD3 (Homo sapiens, UniProt Q9BZ95); experiment: Inhibition of N-terminal His-TEV-tagged human NSD3 (1054 to 1285 residues ) expressed in Escherichia coli using 3[H] SAM as substrate measured after 30 mins by biochemical assay
T1 sequence (Q9BZ95 whole entry): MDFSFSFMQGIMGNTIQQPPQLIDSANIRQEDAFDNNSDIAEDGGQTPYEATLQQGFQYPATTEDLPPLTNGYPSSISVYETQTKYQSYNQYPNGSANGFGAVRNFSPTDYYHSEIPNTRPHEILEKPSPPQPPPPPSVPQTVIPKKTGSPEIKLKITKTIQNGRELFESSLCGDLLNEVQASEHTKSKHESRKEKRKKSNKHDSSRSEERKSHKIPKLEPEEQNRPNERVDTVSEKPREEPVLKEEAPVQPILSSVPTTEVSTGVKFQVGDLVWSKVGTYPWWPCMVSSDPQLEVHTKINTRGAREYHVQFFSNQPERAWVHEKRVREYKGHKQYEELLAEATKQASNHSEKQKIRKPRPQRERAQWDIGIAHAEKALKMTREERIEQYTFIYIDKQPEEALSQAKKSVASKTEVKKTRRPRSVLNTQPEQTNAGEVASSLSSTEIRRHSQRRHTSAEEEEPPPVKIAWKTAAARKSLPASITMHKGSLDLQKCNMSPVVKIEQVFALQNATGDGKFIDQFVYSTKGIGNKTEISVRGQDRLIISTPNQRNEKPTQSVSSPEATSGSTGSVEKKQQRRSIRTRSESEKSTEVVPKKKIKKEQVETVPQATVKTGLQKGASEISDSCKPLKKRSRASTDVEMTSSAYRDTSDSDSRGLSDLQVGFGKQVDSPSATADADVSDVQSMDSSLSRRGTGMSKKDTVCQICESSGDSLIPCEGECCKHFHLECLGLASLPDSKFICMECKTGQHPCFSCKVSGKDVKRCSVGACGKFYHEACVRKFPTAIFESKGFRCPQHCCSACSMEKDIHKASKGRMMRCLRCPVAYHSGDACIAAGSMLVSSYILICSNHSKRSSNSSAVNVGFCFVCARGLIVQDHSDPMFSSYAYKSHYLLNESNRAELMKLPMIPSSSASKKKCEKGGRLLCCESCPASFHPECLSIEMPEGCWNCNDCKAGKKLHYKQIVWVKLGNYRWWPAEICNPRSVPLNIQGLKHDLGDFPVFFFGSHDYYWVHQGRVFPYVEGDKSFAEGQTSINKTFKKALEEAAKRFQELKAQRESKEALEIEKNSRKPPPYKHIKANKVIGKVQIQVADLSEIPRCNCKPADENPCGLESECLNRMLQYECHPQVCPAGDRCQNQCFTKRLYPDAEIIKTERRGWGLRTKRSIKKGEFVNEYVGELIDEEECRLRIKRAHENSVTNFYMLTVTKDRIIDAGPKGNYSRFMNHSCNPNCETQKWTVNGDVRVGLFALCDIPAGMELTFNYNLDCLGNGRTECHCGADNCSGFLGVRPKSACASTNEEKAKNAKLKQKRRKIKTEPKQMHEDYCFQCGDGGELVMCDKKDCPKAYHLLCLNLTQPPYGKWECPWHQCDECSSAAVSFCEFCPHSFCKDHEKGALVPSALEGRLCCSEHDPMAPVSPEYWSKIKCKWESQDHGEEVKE

[2] = target: T2, Histone-lysine N-methyltransferase NSD2 (Homo sapiens, UniProt O96028); experiment: Inhibition of N-terminal GST-tagged human NSD2 (941 to 1240 residues ) expressed in Escherichia coli using 3[H] SAM as substrate measured after 30 mins by biochemical assay
T2 sequence (O96028 whole entry): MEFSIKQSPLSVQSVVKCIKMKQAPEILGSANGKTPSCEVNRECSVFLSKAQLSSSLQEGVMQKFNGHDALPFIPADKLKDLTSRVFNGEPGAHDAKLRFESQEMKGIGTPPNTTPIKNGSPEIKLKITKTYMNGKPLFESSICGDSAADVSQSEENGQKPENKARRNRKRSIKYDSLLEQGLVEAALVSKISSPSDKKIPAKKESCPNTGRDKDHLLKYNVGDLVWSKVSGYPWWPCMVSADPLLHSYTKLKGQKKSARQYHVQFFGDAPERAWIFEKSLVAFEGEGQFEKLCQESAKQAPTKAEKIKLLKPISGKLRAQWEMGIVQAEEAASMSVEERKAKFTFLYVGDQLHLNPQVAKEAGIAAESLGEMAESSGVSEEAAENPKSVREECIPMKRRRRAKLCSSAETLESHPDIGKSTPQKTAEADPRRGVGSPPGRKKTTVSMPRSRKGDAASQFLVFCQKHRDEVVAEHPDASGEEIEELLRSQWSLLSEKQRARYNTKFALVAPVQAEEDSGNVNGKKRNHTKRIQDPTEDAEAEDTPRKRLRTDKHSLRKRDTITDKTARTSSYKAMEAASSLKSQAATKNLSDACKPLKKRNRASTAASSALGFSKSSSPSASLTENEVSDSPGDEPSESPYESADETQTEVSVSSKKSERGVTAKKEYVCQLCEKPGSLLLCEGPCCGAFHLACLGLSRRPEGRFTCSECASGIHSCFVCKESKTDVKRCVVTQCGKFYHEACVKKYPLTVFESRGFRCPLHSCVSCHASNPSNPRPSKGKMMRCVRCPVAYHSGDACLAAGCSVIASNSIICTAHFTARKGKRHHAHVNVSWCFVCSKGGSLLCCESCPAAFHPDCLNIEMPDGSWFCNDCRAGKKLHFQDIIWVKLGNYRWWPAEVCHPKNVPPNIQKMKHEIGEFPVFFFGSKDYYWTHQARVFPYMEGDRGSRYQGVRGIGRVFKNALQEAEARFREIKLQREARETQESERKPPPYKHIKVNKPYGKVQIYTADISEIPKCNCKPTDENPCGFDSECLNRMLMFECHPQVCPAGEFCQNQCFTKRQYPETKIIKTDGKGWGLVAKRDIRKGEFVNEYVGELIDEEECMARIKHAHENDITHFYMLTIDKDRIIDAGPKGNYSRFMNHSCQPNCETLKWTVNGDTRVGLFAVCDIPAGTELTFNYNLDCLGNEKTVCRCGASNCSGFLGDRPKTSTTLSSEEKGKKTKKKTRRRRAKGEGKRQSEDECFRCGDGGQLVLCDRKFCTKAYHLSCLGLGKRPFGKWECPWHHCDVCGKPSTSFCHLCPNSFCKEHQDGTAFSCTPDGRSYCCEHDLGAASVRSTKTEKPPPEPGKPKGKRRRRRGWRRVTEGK

[3] = target: T1, Histone-lysine N-methyltransferase NSD3; experiment: Inhibition of human NSD3 overexpressed in Escherichia coli BL21(DE3) using nucleosome as substrate by SPA analysis
[4] = target: T2, Histone-lysine N-methyltransferase NSD2; experiment: Inhibition of human NSD2 overexpressed in Escherichia coli BL21(DE3) using nucleosome as substrate by SPA analysis
[5] = Inhibition of C-terminal NanoLuc-tagged human NSD3 PWWP1 domain/ C-terminal HaloTag fused histone H3 (unknown origin) interaction transfected in human U2OS cells; type: cell-based
[6] = system: MOLM-13; experiment: Antiproliferative activity against human MOLM-13 cells assessed as cell growth inhibition measured after 6 days by RealTime-Glow MT cell viability assay; type: functional, cell-based; details: MOLM-13, 144 h
[7] = Antiproliferative activity against human RN 22 cells assessed as cell growth inhibition measured after 6 days by RealTime-Glow MT cell viability assay; type: functional, cell-based; details: RN 22, 144 h
[8] = system: MOLM-13; experiment: Antiproliferative activity against human MOLM-13 cells assessed as cell growth inhibition measured after 6 days in presence of JQ1 by RealTime-Glow MT cell viability assay; type: functional, cell-based; details: MOLM-13, 144 h
[9] = target: T3, Histone-lysine N-methyltransferase, H3 lysine-36 specific (Homo sapiens, UniProt Q96L73); experiment: Inhibition of human NSD1 overexpressed in Escherichia coli BL21(DE3) using nucleosome as substrate by SPA analysis
[10] = target: T1, Histone-lysine N-methyltransferase NSD3; experiment: Inhibition of N-terminal GST-fused recombinant human NSD3 (1021 to 1322 residues) expressed in Escherichia coli using SAM as substrate preincubated for 20 mins followed by substrate addition measured after 1 hrs by hotspot assay
[11] = target: T3, Histone-lysine N-methyltransferase, H3 lysine-36 specific; experiment: Inhibition of N-terminal polyhistidine-tagged recombinant human NSD1 (1538 to 2696 residues) expressed in baculovirus infected insect cell using SAM as substrate preincubated for 20 mins followed by substrate addition measured after 1 hrs by hotspot assay
[12] = target: T1, Histone-lysine N-methyltransferase NSD3; experiment: Inhibition of NSD3 PWWP1 domain (unknown origin) assessed as […] by SPR analysis
[13] = target: T1, Histone-lysine N-methyltransferase NSD3; experiment: Inhibition of NSD3 PWWP1 domain (unknown origin) by TR-FRET assay
[14] = target: T1, Histone-lysine N-methyltransferase NSD3; experiment: Binding affinity to human NSD3 […] domain (247 to 402 residues) expressed in Escherichia coli assessed as dissociation constant
[15] = target: von Hippel-Lindau disease tumor suppressor/Histone-lysine N-methyltransferase NSD3 (Homo sapiens, UniProt P40337+Q9BZ95); experiment: PROTAC activity at VHL/NSD3 […] domain in human MOLM-13 cells assessed as […] measured after 48 hrs by immunoblotting analysis; type: cell-based
[16] = system: EOL1; experiment: Antiproliferative activity against human EOL1 cells assessed as cell growth inhibition measured after 8 days; type: functional, cell-based; details: EOL1, 192 h
[17] = system: RS4-11; experiment: Antiproliferative activity against human RS4-11 cells assessed as cell growth inhibition measured after 8 days; type: functional, cell-based; details: RS4-11, 192 h
[18] = system: MM1.S; experiment: Antiproliferative activity against human MM1.S cells assessed as cell growth inhibition measured after 8 days; type: functional, cell-based; details: 192 h

T3 sequence (Q96L73 whole entry, the tested form may be a part): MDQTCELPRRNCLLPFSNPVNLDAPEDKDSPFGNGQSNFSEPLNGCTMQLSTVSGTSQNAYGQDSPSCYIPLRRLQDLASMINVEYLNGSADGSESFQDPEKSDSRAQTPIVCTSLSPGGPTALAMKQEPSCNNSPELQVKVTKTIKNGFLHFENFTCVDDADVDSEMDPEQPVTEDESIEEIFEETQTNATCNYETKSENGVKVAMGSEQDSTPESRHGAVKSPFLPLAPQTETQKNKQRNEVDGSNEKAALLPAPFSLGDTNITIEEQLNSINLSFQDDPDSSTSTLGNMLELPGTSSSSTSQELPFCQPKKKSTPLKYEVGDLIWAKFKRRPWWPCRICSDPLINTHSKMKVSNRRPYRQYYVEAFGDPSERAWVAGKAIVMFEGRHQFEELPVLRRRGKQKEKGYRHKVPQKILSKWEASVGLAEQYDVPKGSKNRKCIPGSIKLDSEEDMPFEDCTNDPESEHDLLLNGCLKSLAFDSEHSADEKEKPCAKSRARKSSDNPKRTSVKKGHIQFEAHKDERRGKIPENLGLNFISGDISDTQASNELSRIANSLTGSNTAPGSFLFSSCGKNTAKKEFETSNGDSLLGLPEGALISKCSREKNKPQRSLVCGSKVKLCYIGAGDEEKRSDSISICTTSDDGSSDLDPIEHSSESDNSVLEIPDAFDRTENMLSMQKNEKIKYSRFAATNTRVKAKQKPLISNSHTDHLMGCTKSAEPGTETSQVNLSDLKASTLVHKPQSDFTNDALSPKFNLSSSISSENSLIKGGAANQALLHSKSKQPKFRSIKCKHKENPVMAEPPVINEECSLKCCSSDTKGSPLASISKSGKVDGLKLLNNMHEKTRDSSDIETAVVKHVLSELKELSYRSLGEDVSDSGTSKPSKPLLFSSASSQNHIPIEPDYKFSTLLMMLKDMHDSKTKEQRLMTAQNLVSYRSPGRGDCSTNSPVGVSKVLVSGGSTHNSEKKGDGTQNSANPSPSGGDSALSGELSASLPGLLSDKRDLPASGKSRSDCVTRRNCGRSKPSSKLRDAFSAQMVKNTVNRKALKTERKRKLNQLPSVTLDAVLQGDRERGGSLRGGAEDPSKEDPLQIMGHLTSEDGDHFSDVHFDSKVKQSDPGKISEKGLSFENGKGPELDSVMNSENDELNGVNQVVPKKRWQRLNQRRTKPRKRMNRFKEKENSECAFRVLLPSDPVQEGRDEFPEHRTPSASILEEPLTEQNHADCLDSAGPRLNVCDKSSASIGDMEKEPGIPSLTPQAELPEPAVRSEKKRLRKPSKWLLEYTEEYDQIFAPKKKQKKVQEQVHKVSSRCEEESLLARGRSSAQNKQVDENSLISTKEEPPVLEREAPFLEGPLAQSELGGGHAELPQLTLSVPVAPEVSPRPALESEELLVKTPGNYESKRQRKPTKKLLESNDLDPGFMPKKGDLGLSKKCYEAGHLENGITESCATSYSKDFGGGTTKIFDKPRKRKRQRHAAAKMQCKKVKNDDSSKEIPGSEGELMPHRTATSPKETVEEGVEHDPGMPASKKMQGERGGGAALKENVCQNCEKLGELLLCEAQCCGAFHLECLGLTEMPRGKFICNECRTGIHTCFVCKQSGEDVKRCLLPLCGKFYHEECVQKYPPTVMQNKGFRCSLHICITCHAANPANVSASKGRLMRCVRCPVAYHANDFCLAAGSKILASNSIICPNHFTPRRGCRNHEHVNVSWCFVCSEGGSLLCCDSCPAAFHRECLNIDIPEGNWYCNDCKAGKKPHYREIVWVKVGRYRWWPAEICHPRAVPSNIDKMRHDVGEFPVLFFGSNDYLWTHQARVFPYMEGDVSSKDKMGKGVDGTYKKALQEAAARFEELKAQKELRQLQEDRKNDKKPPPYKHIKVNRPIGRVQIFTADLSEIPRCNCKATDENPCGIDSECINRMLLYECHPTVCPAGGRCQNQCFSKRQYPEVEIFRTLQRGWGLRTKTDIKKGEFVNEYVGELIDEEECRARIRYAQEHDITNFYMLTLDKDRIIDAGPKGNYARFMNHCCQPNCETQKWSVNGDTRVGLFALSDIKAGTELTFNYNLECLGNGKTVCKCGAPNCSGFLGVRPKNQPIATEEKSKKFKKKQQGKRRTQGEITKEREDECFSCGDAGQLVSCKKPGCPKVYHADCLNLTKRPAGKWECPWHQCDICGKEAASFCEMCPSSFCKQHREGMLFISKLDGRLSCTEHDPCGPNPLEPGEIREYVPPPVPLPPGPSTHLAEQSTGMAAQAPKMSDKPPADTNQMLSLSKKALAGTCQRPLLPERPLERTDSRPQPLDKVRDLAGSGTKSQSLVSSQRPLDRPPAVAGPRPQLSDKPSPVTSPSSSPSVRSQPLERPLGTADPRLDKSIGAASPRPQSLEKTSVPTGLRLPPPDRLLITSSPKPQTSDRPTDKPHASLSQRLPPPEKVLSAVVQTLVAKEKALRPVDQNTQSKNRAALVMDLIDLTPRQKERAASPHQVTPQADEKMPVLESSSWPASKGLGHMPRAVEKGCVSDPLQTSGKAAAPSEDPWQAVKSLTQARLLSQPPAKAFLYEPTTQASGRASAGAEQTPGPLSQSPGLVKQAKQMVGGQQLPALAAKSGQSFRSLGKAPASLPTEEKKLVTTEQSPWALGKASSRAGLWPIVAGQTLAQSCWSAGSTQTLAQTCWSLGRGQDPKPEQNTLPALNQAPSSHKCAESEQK
von Hippel-Lindau disease tumor suppressor/Histone-lysine N-methyltransferase NSD3, sequence (P40337 whole entry, one chain of several): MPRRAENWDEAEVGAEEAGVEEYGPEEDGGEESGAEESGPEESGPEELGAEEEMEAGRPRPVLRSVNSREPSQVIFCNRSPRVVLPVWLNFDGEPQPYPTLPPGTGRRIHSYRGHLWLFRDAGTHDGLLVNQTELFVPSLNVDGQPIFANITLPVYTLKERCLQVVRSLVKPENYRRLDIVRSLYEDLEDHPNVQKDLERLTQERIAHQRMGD

SMILES: CCC[C@H](C)[C@H](NC(=O)[C@@H](NC(=O)CNC(C)=O)C(C)C)C(=O)N[C@@H](CCCNC(=N)N)C(=O)N[C@H](C(N)=O)[C@@H](C)CC (Ac-GV[X1]RI-NH2)
- IC50 [1]: 3.2 µM
- IC50 [2]: 22 µM

SMILES: Cc1ccc(C(=O)Nc2ccc(S(=O)(=O)O)c3cc(S(=O)(=O)O)cc(S(=O)(=O)O)c23)cc1NC(=O)c1cccc(NC(=O)Nc2cccc(C(=O)Nc3cc(C(=O)Nc4ccc(S(=O)(=O)O)c5cc(S(=O)(=O)O)cc(S(=O)(=O)O)c45)ccc3C)c2)c1 [SURAMIN]
- IC50 [3]: 12 µM
- IC50 [4]: 21 µM

SMILES: CN1C(=O)[C@@]23C[C@]4([C@]56C[C@@]78SS[C@@](CO)(C(=O)N7[C@H]5Nc5ccccc56)N(C)C8=O)c5ccccc5N[C@@H]4N2C(=O)[C@]1(CO)SS3 [CHAETOCIN]
- IC50 [3]: 11 µM
- IC50 [9]: 16 µM
- IC50 [4]: 6 µM
- IC50 [10]: 3.2 µM

SMILES: Nc1ncnc2c1ncn2[C@@H]1O[C@H](C[C@@H](N)CC[C@H](N)C(=O)O)[C@@H](O)[C@H]1O [SINEFUNGIN]
- IC50 [9]: 46 µM

Second part, led by results:

- IC50 [5]: 1.2 µM
- IC50 [6]: 26.8 µM
- IC50 [8]: 0.139 µM
SMILES: Cc1cc(CN)cc(C)c1-c1ncn(C)c1-c1ccnc2cc(F)ccc12
- IC50 [7]: 13 µM

- IC50 [11]: 0.11 µM
- IC50 [10]: 0.26 µM
SMILES: O=C1C(Cl)=C(NCCN2CCOCC2)C(=O)c2ncccc21

- Kd [12]: 6.8 µM
- IC50 [13]: 1.9 µM
SMILES: Cc1noc(C)c1-c1ncn(C)c1-c1ccnc2cc(F)ccc12

- Kd [14]: 1.3 µM
- EC50 [15]: 4.9 µM
- EC50 [17]: 3.5 µM
- EC50 [18]: 3.3 µM
SMILES: Cc1cc(CNCCCC(=O)NCCCCCCCCC(=O)N[C@H](C(=O)N2C[C@@H](O)C[C@@H]2C(=O)N[C@H](C)c2ccc(-c3scnc3C)cc2)C(C)(C)C)cc(C)c1-c1ncn(C)c1-c1ccnc2cc(F)ccc12
- EC50 [16]: 2.3 µM

- Kd [12]: 9.7 µM
- IC50 [13]: 5.2 µM
SMILES: Cc1cc(CN)cc(C)c1-c1ncn(C)c1-c1ccncc1
